Assays:
GcoA-F169A and GcoB = target: T1, GcoA-F169A and GcoB (Amycolatopsis sp., UniProt P0DPQ7, F169A/H210Q); assay: Uncoupling reactions: endpoint formaldehyde referenced to NADH consumed; type: biochemical; details: for % Formaldehyde produced: referenced to NADH consumed; for Coupling efficiency: GcoA-F169A-catalyzed reaction
T1 construct: GST (N, cleaved yes); made in house; host or cells: E. coli Rosetta 2 (DE3)
Experimental: The ^a in Table 3 notes that 0.2 μM GcoA-F169A and GcoB were reacted with 100 μg catalase, 100 or 200 μM NADH, and 100 μM substrate in 25 mM HEPES, 50 mM NaCl, pH 7.5, 25° C., 210 μM O2. Endpoint analyses were done to quantify formaldehyde produced, which was then referenced to NADH consumed. The ^b in Table 3 notes that the same reaction done above was repeated to quantify H2O2 produced using the Amplex Red/HRP assay. The amount of hydrogen peroxide was then referenced to NADH consumed.
Formaldehyde determination. A colorimetric assay using tryptophan can be used to quantify the amount of formaldehyde produced in F169 GcoA/B reactions with guaiacol, syringol, or 3MC. 0.2 μM each of F169 GcoA mutants and GcoB were dissolved in air-saturated buffer (25 mM HEPES, 50 mM NaCl) in a cuvette at pH 7.5, 25° C. 100 μg/mL catalase was added to each reaction to capture any H2O2 formed during the uncoupled reaction. Two hundred μM NADH was added and the background rate recorded. One hundred (guaiacol, syringol, or 3MC) or 200 (syringol) μM of substrate was then added and the reaction monitored until there was no more change, due to either substrate, NADH or O2 depletion, whichever occurred first. 200 μL of the reaction was then quenched by adding 200 μL of a 0.1% tryptophan solution in 50% ethanol and 200 μL of 90% sulfuric acid. Upon thorough mixing, 40 μL of 1% FeCl3 was added. The solution was then incubated in a heating block for 90 min at 70° C. After cooling, the absorbance was read at 575 nm and the concentration of formaldehyde was calculated by using ε575 nm=4.2 mM^−1 cm^−1, obtained with formaldehyde as a standard. A negative control included everything but the substrate and was used as a baseline.

GcoA-F169A [1] = target: T2, GcoA-F169A (Amycolatopsis sp., UniProt P0DPQ7, F169A/H210Q); assay: Substrate dissociation constant (KD) by UV/vis spin-state titration; type: binding
T2 construct: GST (N, cleaved yes); made in house; host or cells: E. coli Rosetta 2 (DE3)
Experimental: Guaiacol (FIG. 1A) caused the Soret peak (λ=417 nm) of GcoA-F169A to shift to 387 nm, indicating the conversion of a low-spin to a high-spin species. Syringol (FIG. 1B) caused the Soret peak (λ=417 nm) of GcoA-F169A to shift to 387 nm, indicating the conversion of a low-spin to a high-spin species. 3MC (FIG. 1C) caused the Soret peak (λ=417 nm) of GcoA-F169A to shift to 387 nm, indicating the conversion of a low-spin to a high-spin species. 0-60 μM substrate was titrated into a solution containing 3 μM GcoA-F169A and air-saturated buffer (25 mM HEPES, 50 mM NaCl, pH 7.5, 25° C.) and the spectra monitored until there was no more change, indicating saturation. The solution reached equilibrium prior to each substrate addition. […] Error bars represent ±1 standard deviation of two or more runs.
Zero to 60 μM of guaiacol, syringol, or 3MC in 0.5 or 1 μM aliquots, were titrated into a cuvette containing 3 μM F169A GcoA in 25 mM HEPES, 50 mM NaCl, pH 7.5. The spectrum after each substrate addition was recorded, beginning with no substrate bound. The solution reached equilibrium before the next addition. A difference spectrum was made to illustrate the shift from a low-spin aquo-heme complex to the high-spin substrate-bound complex (spectral shift from 417 nm to 388 nm). […] The absorbance at 388 nm (AbS388-417 nm) was plotted as a function of [substrate], yielding a quadratic curve that was fit to equation (5) to determine the KD.
Where L0, Et, KD, and ΔAbsmax are the ligand concentrations, total protein (subunit) concentration, the equilibrium dissociation constant, and the maximum AbS388-417nm, respectively. Reported values are the average of 2 or more measurements.

GcoA-F169A [2] = target: T2, GcoA-F169A; assay: Rate of NADH disappearance (UV/vis) with each substrate; type: biochemical; details: GcoA-F169A with the named substrate
Experimental: To address whether guaiacol and/or syringol would serve as substrates of GcoA-F169A, the disappearance of NADH (UV/vis) and aromatic substrate (HPLC) was monitored over time (FIG. 1). The rates of organic substrate and NADH consumption were robust and the same within error, regardless of whether guaiacol or syringol was used (5.3±0.3 μM guaiacol s^−1 μmol GcoA-F169A^−1, 5.8±0.8 μM NADH s^−1 μmol GcoA-F169A-1; 4.1±0.3 μM syringol s^−1 μmol GcoA-F169A^−1, 5.1±0.8 μM NADH s^−1 μmol GcoA-F169A^−1).
Steady state kinetics of F169A. 0.2 μM each of F169A GcoA and GcoB were dissolved in air-saturated buffer (25 mM HEPES, 50 mM NaCl) in a cuvette at pH 7.5, 25° C. 100 μg/mL catalase was added to each reaction to capture any H2O2 formed during the uncoupled reaction. A saturating amount of NADH (≥5 KM, 300 μM) was added and a background rate of NADH oxidation in air (about 210 μM O2) recorded via continuous scanning of the UV/vis spectrum (Varian Cary 50). 20-300 μM guaiacol or syringol 2-20 mM stock dissolved in DMSO was added and the reaction was monitored via measurement of UV/vis spectra for several minutes. The initial velocity was determined by disappearance of the characteristic NADH absorbance at 340 nm ([…]=6.22 mM^−1 cm^−1). A plot of vi versus the concentration of guaiacol was fit to equation 4 to obtain kcat, KM, and kcat/KM. For specific activity determination, the above method was used but with saturating (300 μM) guaiacol, syringol, or 3-methoxycatechol (3MC), and in the presence of all F169 GcoA mutants (A, H, S, V, I, L). The linear portion of the concentration of NADH versus time was fit and referenced to the amount of GcoA used (0.2 μM). Reported values are the average of at least 3 measurements and reported errors are standard deviations. vi=Vmax[S]/(KM+[S]) Equation (4): […]

T2 sequence (P0DPQ7 whole entry F169A/H210Q): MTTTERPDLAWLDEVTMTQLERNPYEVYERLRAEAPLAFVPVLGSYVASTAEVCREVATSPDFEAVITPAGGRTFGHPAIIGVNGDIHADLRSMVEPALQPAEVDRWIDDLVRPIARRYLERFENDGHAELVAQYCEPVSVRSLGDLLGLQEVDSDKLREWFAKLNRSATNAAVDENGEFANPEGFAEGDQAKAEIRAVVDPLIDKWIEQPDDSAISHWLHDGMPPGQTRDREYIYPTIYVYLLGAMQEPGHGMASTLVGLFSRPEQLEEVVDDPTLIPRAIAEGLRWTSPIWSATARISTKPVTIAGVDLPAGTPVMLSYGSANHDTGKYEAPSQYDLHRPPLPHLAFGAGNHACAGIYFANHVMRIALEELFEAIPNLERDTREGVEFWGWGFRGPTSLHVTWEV
T1 sequence (P0DPQ7 whole entry F169A/H210Q): as above

SMILES	% Formaldehyde produced (GcoA-F169A and GcoB; 100 μM substrate + 100 μM NADH) [%]	% Formaldehyde produced (GcoA-F169A and GcoB; 100 μM substrate + 200 μM NADH) [%]	Kd (GcoA-F169A [1]) [µM]	Rate of NADH consumption (UV/vis) (GcoA-F169A [2])	Coupling efficiency (GcoA-F169A and GcoB) [%]
COc1cccc(OC)c1O [syringol, 2,6-dimethoxyphenol]	125 ± 6	91 ± 8	1.7 ± 0.07	5.1±0.8 μM NADH s^−1 μmol GcoA-F169A^−1	
COc1ccccc1O [guaiacol, 2-methoxyphenol]	100 ± 10		7.1 ± 0.1	5.8±0.8 μM NADH s^−1 μmol GcoA-F169A^−1	91±8
COc1cccc(O)c1O [3MC, 3-methoxycatechol]	52 ± 7		9.5 ± 0.02	5.6±0.8 μM NADH s^−1 μmol GcoA-F169A^−1	64±10

Source: patent US11208642B2, “Microbial syringol utilization” (Alliance for Sustainable Energy, LLC, priority 2018, dated 2021)
